SMILES strings stand for the structures.

A word on the EC50: it is the midpoint of the concentration-response curve.

In the experiment the test system is endogenous cellular STAT1 (phosphorylated at Tyr701) in NCI-H1373 cells. Nature of the experiment: Phospho-STAT1 (Tyr701) LANCE Ultra TR-FRET Detection Assay. In kind it is cell-based. To be noted: Homo sapiens, NCI-H1373, 48 h, phospho-STAT1 (Tyr701) induction, read-out: NH1373 pSTAT1 EC50. For orientation: Time-resolved FRET reads energy transfer from a long-lived donor to a nearby acceptor.
As for `O=c1[nH]ncc(N2C[C@@H](F)C[C@H]2CCCn2ccc3cc(-c4ncc(C(F)(F)F)cn4)c(F)cc3c2=O)c1C(F)(F)F` [Example 141, 7-fluoro-2-[3-[(2R,4S)-4-fluoro-1-[6-oxo-5-(trifluoromethyl)-1H-pyridazin-4-yl]pyrrolidin-2-yl]propyl]-6-[5-(trifluoromethyl)pyrimidin-2-yl]isoquinolin-1-one], the EC50 came to 16.2 nM. Take `CC[C@@H](CCCn1cnc2cc(-c3ncc(Cl)cn3)c(F)cc2c1=O)Nc1cn[nH]c(=O)c1C(F)(F)F` [Example 157, 7-(5-chloropyrimidin-2-yl)-6-fluoro-3-[(4S)-4-[[6-oxo-5-(trifluoromethyl)-1H-pyridazin-4-yl]amino]hexyl]quinazolin-4-one]: the EC50 is 22.7 nM. Regarding `C[C@H](CCCn1ccc2cc(-c3ccc(C(F)(F)F)cn3)ccc2c1=O)Nc1cn[nH]c(=O)c1C(F)(F)F` (single isomer, unassigned) [Example 2], the EC50 stood at 10000 nM. In the case of `Nc1nc(-c2cc3ccn(C[C@@H]4CCC[C@H](Nc5cn[nH]c(=O)c5C(F)(F)F)C4)c(=O)c3c(F)c2F)ncc1Cl` [Example 243, 6-(4-amino-5-chloropyrimidin-2-yl)-7,8-difluoro-2-(((1R,3S)-3-((6-oxo-5-(trifluoromethyl)-1,6-dihydropyridazin-4-yl)amino)cyclohexyl)methyl)isoquinolin-1(2H)-one], the EC50 is 2.98 nM. In the case of `Nc1nc(-c2cc3ccn(CC[C@H]4CC[C@@H]4Nc4cn[nH]c(=O)c4C(F)(F)F)c(=O)c3cc2F)ncc1C(F)(F)F` [Example 123, 6-(4-amino-5-(trifluoromethyl)pyrimidin-2-yl)-7-fluoro-2-(2-((1R,2S)-2-((6-oxo-5-(trifluoromethyl)-1,6-dihydropyridazin-4-yl)amino)cyclobutyl)ethyl)isoquinolin-1(2H)-one], the EC50 turned out to be 6.29 nM.

Regarding `Cc1nc(N)nc(-c2cc3ccn(CCC[C@H](C)Nc4cn[nH]c(=O)c4C(F)(F)F)c(=O)c3cc2F)n1` [Example 366, (S)-6-(4-amino-6-methyl-1,3,5-triazin-2-yl)-7-fluoro-2-(4-((6-oxo-5-(trifluoromethyl)-1,6-dihydropyridazin-4-yl)amino)pentyl)isoquinolin-1(2H)-one], the EC50 worked out at 92.5 nM. With `O=c1[nH]ncc(N[C@H](CCCn2ccc3cc(-c4ncc(C(F)(F)F)s4)c(F)cc3c2=O)COC(F)F)c1C(F)(F)F` [Example 396, (R)-2-(5-(difluoromethoxy)-4-((6-oxo-5-(trifluoromethyl)-1,6-dihydropyridazin-4-yl)amino)pentyl)-7-fluoro-6-(5-(trifluoromethyl)thiazol-2-yl)isoquinolin-1(2H)-one], the EC50 amounted to 48.8 nM.

For `N#CC[C@@H](CCCn1ccc2cc(-c3ncc(C(F)(F)F)cn3)c(F)cc2c1=O)Nc1cn[nH]c(=O)c1C(F)(F)F` [Example 160, (3R)-6-[7-fluoro-1-oxo-6-[5-(trifluoromethyl)pyrimidin-2-yl]-2-isoquinolyl]-3-[[6-oxo-5-(trifluoromethyl)-1H-pyridazin-4-yl]amino]hexanenitrile], the EC50 worked out at 219 nM. In the case of `C[C@@H](CCCn1ccc2cc(-c3nc(C(F)(F)F)co3)c(F)cc2c1=O)Nc1cn[nH]c(=O)c1C(F)(F)F` [Example 323, (S)-7-fluoro-2-(4-((6-oxo-5-(trifluoromethyl)-1,6-dihydropyridazin-4-yl)amino)pentyl)-6-(4-(trifluoromethyl)oxazol-2-yl)isoquinolin-1(2H)-one] it was 260 nM. Then `O=c1[nH]ncc(N[C@H]2CCC[C@@H](Cn3cnc4cc(-c5ncc(C(F)F)cn5)c(F)cc4c3=O)C2)c1C(F)(F)F` [Example 244, 7-(5-(difluoromethyl)pyrimidin-2-yl)-6-fluoro-3-(((1R,3S)-3-((6-oxo-5-(trifluoromethyl)-1,6-dihydropyridazin-4-yl)amino)cyclohexyl)methyl)quinazolin-4(3H)-one], with 5.19 nM; and `O=c1[nH]ncc(N[C@H]2CCC[C@@H](Cn3ccc4cc(-c5cnc(C(F)F)cn5)c(F)c(F)c4c3=O)C2)c1C(F)(F)F` [Example 253, 6-(5-(difluoromethyl)pyrazin-2-yl)-7,8-difluoro-2-(((1R,3S)-3-((6-oxo-5-(trifluoromethyl)-1,6-dihydropyridazin-4-yl)amino)cyclohexyl)methyl)isoquinolin-1(2H)-one], with 9.41 nM. Turning to `C[C@@H](CCCn1cnc2cc(-c3ncc(C4CC4)cn3)c(F)cc2c1=O)Nc1cn[nH]c(=O)c1C(F)(F)F` [Example 83, (S)-7-(5-cyclopropylpyrimidin-2-yl)-6-fluoro-3-(4-((6-oxo-5-(trifluoromethyl)-1,6-dihydropyridazin-4-yl)amino)pentyl)quinazolin-4(3H)-one], the EC50 was found to be 58.2 nM.

Take `O=c1[nH]ncc(N[C@H](CCCn2ccc3cc(-c4nc5n(n4)CCNC5)c(F)cc3c2=O)COC(F)F)c1C(F)(F)F` [Example 439, (R)-2-(5-(difluoromethoxy)-4-((6-oxo-5-(trifluoromethyl)-1,6-dihydropyridazin-4-yl)amino)pentyl)-7-fluoro-6-(5,6,7,8-tetrahydro-[1,2,4]triazolo[1,5-a]pyrazin-2-yl)isoquinolin-1(2H)-one]: the EC50 turned out to be 534 nM.

Regarding `Nc1nc(-c2cc3ncn(CC[C@H]4CCC[C@@H]4Nc4cn[nH]c(=O)c4C(F)(F)F)c(=O)c3cc2F)ncc1Cl` [Example 449, 7-(4-amino-5-chloropyrimidin-2-yl)-6-fluoro-3-(2-((1R,2S)-2-((6-oxo-5-(trifluoromethyl)-1,6-dihydropyridazin-4-yl)amino)cyclopentyl)ethyl)quinazolin-4(3H)-one], the EC50 was 6.42 nM. Consider `C[C@@H](CCCn1ccc2cc(-c3ncc(C(F)(F)F)c(N4CCC4)n3)c(F)cc2c1=O)Nc1cn[nH]c(=O)c1C(F)(F)F` [Example 187, (S)-6-(4-(azetidin-1-yl)-5-(trifluoromethyl)pyrimidin-2-yl)-7-fluoro-2-(4-((6-oxo-5-(trifluoromethyl)-1,6-dihydropyridazin-4-yl)amino)pentyl)isoquinolin-1(2H)-one], for which the EC50 was 20.7 nM.

For `CC[C@@H](CCCn1ccc2cc(-c3cnc(C(F)(F)F)c(N)n3)c(F)c(F)c2c1=O)Nc1cn[nH]c(=O)c1C(F)(F)F` [Example 362, (S)-6-(6-amino-5-(trifluoromethyl)pyrazin-2-yl)-7,8-difluoro-2-(4-((6-oxo-5-(trifluoromethyl)-1,6-dihydropyridazin-4-yl)amino)hexyl)isoquinolin-1(2H)-one], the EC50 worked out at 15.7 nM. Take `O=c1[nH]ncc(N[C@H](CCCn2ccc3cc(-c4ccc(C(F)F)cn4)c(F)cc3c2=O)COC(F)F)c1C(F)(F)F` [Example 401, (R)-2-(5-(difluoromethoxy)-4-((6-oxo-5-(trifluoromethyl)-1,6-dihydropyridazin-4-yl)amino)pentyl)-6-(5-(difluoromethyl)pyridin-2-yl)-7-fluoroisoquinolin-1(2H)-one]: the EC50 came to 1.63 nM. As to `COc1cnc(-c2cc3ccn(CCC[C@H](C)Nc4cn[nH]c(=O)c4C(F)(F)F)c(=O)c3cc2F)nc1NCCO` [Example 218, (S)-7-fluoro-6-(4-((2-hydroxyethyl)amino)-5-methoxypyrimidin-2-yl)-2-(4-((6-oxo-5-(trifluoromethyl)-1,6-dihydropyridazin-4-yl)amino)pentyl)isoquinolin-1(2H)-one], the EC50 was determined as 1100 nM. Consider `CC[C@@H](CCCn1ccc2cc(-c3ncc(OC(F)F)c(N)n3)c(F)c(F)c2c1=O)Nc1cn[nH]c(=O)c1C(F)(F)F` [Example 361, (S)-6-(4-amino-5-(difluoromethoxy)pyrimidin-2-yl)-7,8-difluoro-2-(4-((6-oxo-5-(trifluoromethyl)-1,6-dihydropyridazin-4-yl)amino)hexyl)isoquinolin-1(2H)-one], for which the EC50 was 10.9 nM.

For the molecule `C[C@@H](CCCn1ccc2cc(-c3ccc(C(F)F)c(N)n3)c(F)cc2c1=O)Nc1cn[nH]c(=O)c1C(F)(F)F` [Example 224, (S)-6-(6-amino-5-(difluoromethyl)pyridin-2-yl)-7-fluoro-2-(4-((6-oxo-5-(trifluoromethyl)-1,6-dihydropyridazin-4-yl)amino)pentyl)isoquinolin-1(2H)-one], the EC50 is 6.14 nM. Take `Cc1c[nH]c2nc(-c3cc4ncn(CCC[C@H](C)Nc5cn[nH]c(=O)c5C(F)(F)F)c(=O)c4cc3F)ncc12` [Example 63, 6-fluoro-7-(5-methyl-7H-pyrrolo[2,3-d]pyrimidin-2-yl)-3-[(4S)-4-[[6-oxo-5-(trifluoromethyl)-1H-pyridazin-4-yl]amino]pentyl]quinazolin-4-one]: the EC50 is 7.15 nM. For the molecule `CCNc1nc(-c2cc3ccn(CCC[C@H](C)Nc4cn[nH]c(=O)c4C(F)(F)F)c(=O)c3cc2F)ncc1OC` [Example 215, (S)-6-(4-(ethylamino)-5-methoxypyrimidin-2-yl)-7-fluoro-2-(4-((6-oxo-5-(trifluoromethyl)-1,6-dihydropyridazin-4-yl)amino)pentyl)isoquinolin-1(2H)-one], the EC50 turned out to be 36.1 nM.

As to `C[C@@H](CCCn1ccc2cc(-c3ncc(C(F)F)c(NCCO)n3)c(F)cc2c1=O)Nc1cn[nH]c(=O)c1C(F)(F)F` [Example 222, (S)-6-(5-(difluoromethyl)-4-((2-hydroxyethyl)amino)pyrimidin-2-yl)-7-fluoro-2-(4-((6-oxo-5-(trifluoromethyl)-1,6-dihydropyridazin-4-yl)amino)pentyl)isoquinolin-1(2H)-one], the EC50 was determined as 258 nM. In the case of `C[C@@H](CCCn1cnc2cc(-c3ncc(Cl)cn3)c(F)cc2c1=O)Nc1cn[nH]c(=O)c1C(F)(F)F` [Example 200, (S)-7-(5-chloropyrimidin-2-yl)-6-fluoro-3-(4-((6-oxo-5-(trifluoromethyl)-1,6-dihydropyridazin-4-yl)amino)pentyl)quinazolin-4(3H)-one], the EC50 stood at 29.1 nM. As for `C[C@@H](CCCn1ccc2cc(-c3ncc4c(n3)NCC4(C)C)c(F)cc2c1=O)Nc1cn[nH]c(=O)c1C(F)(F)F` [Example 112, 6-(5,5-dimethyl-6,7-dihydropyrrolo[2,3-d]pyrimidin-2-yl)-7-fluoro-2-[(4S)-4-[[6-oxo-5-(trifluoromethyl)-1H-pyridazin-4-yl]amino]pentyl]isoquinolin-1-one], the EC50 amounted to 2.07 nM.
